Values of other authors, collected in patent EP1033131B1, “Composition in the form of a drink having a delayed alcohol aversion effect” (Semenov, Sergei Petrovich, priority 1997, dated 1999).

Columns and labels:
Ratten = settings: in vivo
[1] = for Anregungseffekt der Alkoholwirkung / alkoholische Anregung: result in words
[2] = in vivo
Cholinesterase = settings: factor of reduction

Compound: 2,6-Diethylester der Ascorbinsäure
- Verlaufsschwere des Alkoholentzugssyndroms (Ratten): vermindert
- Stärke der alkoholischen Anregung, vermindert mit dem Quotienten ([1]; factor of reduction): 4
- Eintreten der Anregungsphase ([1]; in vivo): verlangsamt
- Dauer der alkoholischen Anregung, vermindert um ([1]; percent reduction): 25%
- Dauer des narkotischen Effekts des Alkohols [2]: vermindert

Compound: 3,6-Diethylester der Ascorbinsäure
- Dauer des narkotischen Effekts des Alkohols [2]: vermindert

Compound: CCOC(=O)C(O)=C(O)C(O)C(O)CO (centres unmarked) [1-Ethylester der Ascorbinsäure]
- Zeitraum der Anregung, verkürzt mit dem Quotienten ([1]; factor of shortening): 2
- Anregungseffekt der Alkoholwirkung / alkoholische Anregung [1]: vermindern
- Aktivität der Cholinesterase, vermindert mit dem Quotienten (Cholinesterase): > 2

Compound: CCOC1=C(OCC)C(C(O)CO)OC1=O (centres unmarked) [2,3-Diethylester der Ascorbinsäure]
- Verlaufsschwere des Alkoholentzugssyndroms (Ratten): vermindert
- Anregungseffekt der Alkoholwirkung / alkoholische Anregung [1]: beeinflusst
